The target of one assay is soluble human BACE1 catalytic domain (Homo sapiens (Human), UniProt P56817). Put plainly: BACE1 HTRF FRET Assay. Particulars: BACE1 Ki (nM). Background: TR-FRET usually uses a lanthanide donor and a delayed reading to cut background.
soluble human BACE1 catalytic domain, sequence (P56817 75-416): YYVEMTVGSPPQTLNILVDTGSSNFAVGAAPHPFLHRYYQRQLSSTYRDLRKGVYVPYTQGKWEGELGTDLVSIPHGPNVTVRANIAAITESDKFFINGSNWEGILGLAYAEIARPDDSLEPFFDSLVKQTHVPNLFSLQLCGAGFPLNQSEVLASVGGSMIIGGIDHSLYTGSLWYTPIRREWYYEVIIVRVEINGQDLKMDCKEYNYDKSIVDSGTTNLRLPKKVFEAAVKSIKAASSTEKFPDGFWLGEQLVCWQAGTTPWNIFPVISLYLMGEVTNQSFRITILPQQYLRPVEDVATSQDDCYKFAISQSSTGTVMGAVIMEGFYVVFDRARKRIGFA
One may read the Ki as the equilibrium dissociation constant of an inhibitor or competing ligand from its target. `Cc1nc2cc(CC3(C)C(=N)N[C@](C)(c4cc(F)ccc4F)CS3(=O)=O)ccc2o1` (single isomer, unassigned) [Example 32a-b] had a Ki of 4640 nM.

Still in this assay, the particulars now being: read-out: BACE1 Ki.
As to `CC1(C)C(=N)N[C@](C)(c2sc(-c3cc4ccccc4s3)cc2Cl)CS1(=O)=O` [Example 27f], the Ki amounted to 1180 nM.

Take `COCCn1cc(-c2cc(Cl)c([C@]3(C)CS(=O)(=O)C(C)(C)C(=N)N3)s2)cn1` [Example 27r]: the Ki stood at 448 nM.

For `CC1(C)C(=N)N[C@](C)(c2cc(-c3cncc(-c4ncco4)c3)cs2)CS1(=O)=O` [Example 27ak], the Ki was found to be 128 nM.

As for `C[C@@]1(c2ccccn2)C(=N)N[C@](C)(c2sc(-c3cccc(C#N)c3)cc2F)CS1(=O)=O` [Example 27bo-b], the Ki is 2720 nM.

For the compound `CC1(C)C(=N)N[C@](C)(c2sc(-c3cccc(C#N)c3F)cc2Cl)CS1(=O)=O` [Example 27z], the Ki was 400 nM.

As for `CC1(C)C(=N)N[C@](C)(c2nc3ccc(-c4cccc(C#N)c4)cc3s2)CS1(=O)=O` [Example 29c], the Ki was found to be 2380 nM.

As to `C[C@@]1(c2cccc(C(F)(F)F)c2)C(=N)N[C@](C)(c2ccc(F)cc2F)CS1(=O)=O` [Example 32h-b], the Ki was 2120 nM.

As for `Cc1noc(-c2cccc(-c3cc(F)c([C@]4(C)CS(=O)(=O)C(C)(C)C(=N)N4)s3)c2)n1` [Example 27aw], the Ki amounted to 125 nM.

Consider `CC1(C)C(=N)N[C@](C)(c2sc(-c3cc(F)cc(F)c3)cc2Cl)CS1(=O)=O` [Example 27i], for which the Ki amounted to 170 nM.

`COc1cccc([C@@]2(C)C(=N)N[C@](C)(c3ccc(F)cc3F)CS2(=O)=O)c1` [Example 32f-a]: the Ki amounted to 1210 nM.

As to `C[C@]1(Cc2cccc(Br)c2)C(=N)N[C@](C)(c2ccc(F)cc2F)CS1(=O)=O` [Example 32j-a], the Ki came out at 2100 nM.

The same assay, now with this note: read-out: BACE1 Ki; Ki calculated from IC50 using the Cheng-Prusoff equation.
As to `CC1(C)C(=N)N[C@](C)(c2sc(-c3cncc(-c4ncco4)c3)cc2Cl)CS1(=O)=O` [Example 27ad], the Ki was 44.4 nM.

Regarding `CC1(C)C(=N)N[C@](C)(c2cc(NC(=O)c3ccc(F)cn3)cc(F)c2F)CS1(=O)=O` [Example 9k], the Ki was 9.7 nM.

For the compound `CC1(C)C(=N)N[C@](C)(c2cc(NC(=O)C3CCC3(F)F)cc(F)c2F)CS1(=O)=O` (stereo partly drawn) [Example 9br], the Ki was 610 nM.

Consider `CCC(=O)Nc1ccc(F)c([C@]2(C)CS(=O)(=O)C(C)(C)C(=N)N2)c1` [Example 9as], for which the Ki is 521 nM.

Regarding `COc1ccc(C(=O)Nc2cc(Cl)c(F)c([C@]3(C)CS(=O)(=O)C(C)(C)C(=N)N3)c2)nc1` [Example 9u], the Ki was 5.8 nM.

Turning to `CC1(C)C(=N)N[C@](C)(c2cc(NC(=O)c3cnc(C(F)F)cn3)cc(F)c2F)CS1(=O)=O` [Example 9r], the Ki was 5.3 nM.

Take `CC1(C)C(=N)N[C@](C)(c2cc(NC(=O)c3ccno3)cc(F)c2F)CS1(=O)=O` [Example 9bs]: the Ki was 171 nM.

Regarding `CC1(C)C(=N)N[C@](C)(c2sc(C(=O)NCc3ccccc3Cl)cc2Cl)CS1(=O)=O` [Example 22h], the Ki was 1620 nM.

With `C[C@]1(CC2CC2)C(=N)N[C@](C)(c2cc(NC(=O)c3ccc(C(F)(F)F)cn3)ccc2F)CS1(=O)=O` [Example 9dl-a], the Ki is 4.4 nM.

In the case of `Cc1noc(CC(=O)Nc2ccc(F)c([C@]3(C)CS(=O)(=O)C(C)(C)C(=N)N3)c2)n1` [Example 9ao], the inhibition constant Ki is 3240 nM.

Regarding `COc1cnc(C(=O)Nc2cc(Cl)c(F)c([C@]3(C)CS(=O)(=O)C(C)(C)C(=N)N3)c2)cn1` [Example 9w], the Ki is 4.4 nM.

Regarding `COc1ccc(C(=O)Nc2ccc(F)c([C@]3(C)CS(=O)(=O)[C@](C)(c4cccc(F)c4)C(=N)N3)c2)nc1` [Example 9dc-b], the Ki is 216 nM.

Regarding `CC1(C)C(=N)N[C@](C)(c2cc(NC(=O)[C@H]3CCCO3)ccc2F)CS1(=O)=O` [Example 9al], the Ki was 172 nM.

On to `CC1(C)C(=N)N[C@](C)(c2c(F)c(F)cc(NC(=O)c3ccc(F)cn3)c2F)CS1(=O)=O` [Example 9aa], for which the Ki is 35.4 nM.

On to `COCC(=O)Nc1ccc(F)c([C@]2(C)CS(=O)(=O)[C@@](C)(c3cccc(C(F)(F)F)c3)C(=N)N2)c1` [Example 9cp-a], for which the inhibitory constant (Ki) is 18 nM.

In the case of `CC1(C)C(=N)N[C@](C)(c2cc(NC(=O)c3ncc(Cl)cc3Cl)ccc2F)CS1(=O)=O` [Example 9], the Ki was less than 0.5 nM.

As for `C[C@@]1(c2cc(NC(=O)c3ccc(F)cn3)ccc2F)CS(=O)(=O)[C@@](C)(C2CCOCC2)C(=N)N1` [Example 9ds-a], the Ki is 3.5 nM.

For the compound `CC[C@@]1(C)C(=N)N[C@](C)(c2cc(NC(=O)c3ccc(F)cn3)ccc2F)CS1(=O)=O` [Example 9cl-a], the Ki is 5.9 nM.

With `COc1cnc(C(=O)Nc2ccc(F)c([C@]3(C)CS(=O)(=O)C(C)(C)C(=N)N3)c2)c(F)c1` [Example 9d], the Ki was 5.4 nM.

Take `C[C@@]1(c2cc(NC(=O)c3ccc(F)cn3)ccc2F)CS(=O)(=O)[C@@](C)(C2CCC2)C(=N)N1` [Example 9dv-a]: the Ki was 7 nM.

As for `CC1(C)C(=N)N[C@](C)(c2sc(C(=O)NCC3CCC3)cc2Cl)CS1(=O)=O` [Example 22n], the Ki is 917 nM.

`CC1(C)C(=N)N[C@](C)(c2sc(-c3cc(F)cc(-c4nnco4)c3)cc2Cl)CS1(=O)=O` [Example 27ab]: the Ki was 15.4 nM.

On to `CC1(C)C(=N)N[C@](C)(c2cc(NC(=O)CC(F)(F)F)cc(F)c2F)CS1(=O)=O` [Example 9bc], for which the Ki is 703 nM.

`CC1(C)C(=N)N[C@](C)(c2cc(NC(=O)c3ccc(Cl)cn3)cc(Cl)c2F)CS1(=O)=O` [Example 9t]: the Ki is 3.3 nM.

Consider `COc1ccc(C(=O)Nc2ccc(F)c([C@]3(C)CS(=O)(=O)[C@@](C)(C(C)C)C(=N)N3)c2)nc1` [Example 9eb-a], for which the Ki was 16.5 nM.

For the compound `Cc1ccc(CNC(=O)c2cc(Cl)c([C@]3(C)CS(=O)(=O)C(C)(C)C(=N)N3)s2)nn1` [Example 22e], the Ki is 759 nM.

Take `CC1(C)C(=N)N[C@](C)(c2sc(C(=O)NCc3ccc(C#N)cc3)cc2Cl)CS1(=O)=O` [Example 22m]: the Ki was 1030 nM.

For the compound `COc1cnc(C(=O)Nc2ccc(F)c([C@]3(C)CS(=O)(=O)[C@@](C)(c4cccc(F)c4)C(=N)N3)c2)cn1` [Example 9dd-a], the Ki is 3.9 nM.

For `Cc1ccc(C(=O)Nc2ccc(F)c([C@]3(C)CS(=O)(=O)C(C)(C)C(=N)N3)c2)nc1` [Example 4], the Ki was 8 nM.

Staying with this assay, now noted: read-out: BACE1 inhibition, % Inh. at 10 μM, at 10 μM.
A word on the inhibition: it is the change of the read-out against control, counted positive when it falls. `C[C@@]1(c2cc(N)ccc2F)CS(=O)(=O)[C@](C)(CC(F)(F)F)C(=N)N1` [Entry 36]: the inhibition at 10 µM was found to be 37%.

`C[C@@]1(c2ccccn2)C(=N)N[C@](C)(c2sc(Br)cc2F)CS1(=O)=O` [Entry 86]: the inhibition at 10 µM was determined as 44%.

Consider `CC1(c2nc(C#Cc3ccc(F)cc3)ccc2F)CS(=O)(=O)C(C)(C)C(=N)N1` (stereo not drawn) [Example 31a], for which the inhibition at 10 µM came out at 41%.

The assay is the same for the next values; noted with them: read-out: BACE1 inhibition, Ki.
For the compound `C[C@@]1(c2cc(N)ccc2F)CS(=O)(=O)[C@@](C)(c2cc(C(F)(F)F)ccn2)C(=N)N1` [Entry 73], the inhibition constant Ki was 4600 nM.

As for `CC(C)[C@@]1(C)C(=N)N[C@](C)(c2cc(N)ccc2F)CS1(=O)=O` [Entry 27], the Ki is 4800 nM.

`C[C@@]1(c2cc(N)ccc2F)CS(=O)(=O)[C@@](C)(C2CCOCC2)C(=N)N1` [Entry 50]: the Ki came out at 500 nM.

Turning to `C[C@@]1(c2cc([N+](=O)[O-])ccc2F)CS(=O)(=O)[C@@](C)(c2cccc(C(F)(F)F)c2)C(=N)N1` [Entry 66], the Ki came to 600 nM.

The record behind these values is patent US9499502B2, “5-substituted iminothiazines and their mono- and dioxides as BACE inhibitors, compositions, and their use” (Merck Sharp & Dohme Corp., priority 2011, dated 2016).
